From US9221810B2, “Substituted bicyclic aromatic compounds as S-nitrosoglutathione reductase inhibitors” (Nivalis Therapeutics, Inc., priority 2010, dated 2015)

Molecular target: T1, GSNOR (Homo sapiens, UniProt P11766)
T1 construct: made in house; host or cells: E. coli (arabinose-induced)
Assay: GSNOR assay (inhibition of GSNOR activity, NADH absorbance at 340 nm)
Format: biochemical
Settings: printed as 'about <'; 0.240 mM GSNO, 0.300 mM NADH, pH 7.4, 25° C.
Procedure: GSNOR expression and purification is described in Biochemistry 2000, 39, 10720-10729.
GSNOR Fermentation: Pre-cultures were grown from stabs of a GSNOR glycerol stock in 2XYT media containing 100 ug/ml ampicillin after an overnight incubation at 37° C. Cells were then added to fresh 2XYT (4 L) containing ampicillin and grown to an OD (A600) of 0.6-0.9 at 37° C. before induction. GSNOR expression was induced with 0.1% arabinose in an overnight incubation at 20° C.
GSNOR Purification: E. coli cell paste was lysed by nitrogen cavitation and the clarified lysate purified by Ni affinity chromatography on an AKTA FPLC (Amersham Pharmacia). The column was eluted in 20 mM Tris pH 8.0/250 mM NaCl with a 0-500 mM imidazole gradient. Eluted GSNOR fractions containing the Smt-GSNOR fusion were digested overnight with Ulp-1 at 4° C. to remove the affinity tag then re-run on the Ni column under the same conditions. GSNOR was recovered in the flowthrough fraction and for crystallography is further purified by Q-Sepharose and Heparin flowthrough chromatography in 20 mM Tris pH 8.0, 1 mM DTT, 10 uM ZnSO4.
GSNOR Assay: GSNO and enzyme/NADH Solutions are made up fresh each day. The solutions are filtered and allowed to warm to room temperature. GSNO solution: 100 mM NaPO4 (pH 7.4), 0.480 mM GSNO. 396 μL of GSNO Solution is added to a cuvette followed by 8 μL of test compound in DMSO (or DMSO only for full reaction control) and mixed with the pipette tip. Compounds to be tested are made up at a stock concentration of 10 mM in 100% DMSO. 2 fold serial dilutions are done in 100% DMSO. 8 μL of each dilution are added to an assay so that the final concentration of DMSO in the assay is 1%. The concentrations of compounds tested range from 100 to 0.003 μM. Enzyme/NADH solution: 100 mM NaPO4 (pH 7.4), 0.600 mM NADH, 1.0 μg/mL GSNO Reductase. 396 μL of the Enzyme/NADH solution is added to the cuvette to start the reaction. The cuvette is placed in the Cary 3E UV/Visible Spectrophotometer and the change in 340 nm absorbance/min at 25° C. is recorded for 3 minutes. The assays are done in triplicate for each compound concentration. IC50's for each compound are calculated using the standard curve analysis in the Enzyme Kinetics Module of SigmaPlot.
Final assay conditions: 100 mM NaPO4, pH 7.4, 0.240 mM GSNO, 0.300 mM NADH, 0.5 μg/mL GSNO Reductase, and 1% DMSO. Final volume: 800 μL/cuvette.

T1 sequence (P11766 whole entry): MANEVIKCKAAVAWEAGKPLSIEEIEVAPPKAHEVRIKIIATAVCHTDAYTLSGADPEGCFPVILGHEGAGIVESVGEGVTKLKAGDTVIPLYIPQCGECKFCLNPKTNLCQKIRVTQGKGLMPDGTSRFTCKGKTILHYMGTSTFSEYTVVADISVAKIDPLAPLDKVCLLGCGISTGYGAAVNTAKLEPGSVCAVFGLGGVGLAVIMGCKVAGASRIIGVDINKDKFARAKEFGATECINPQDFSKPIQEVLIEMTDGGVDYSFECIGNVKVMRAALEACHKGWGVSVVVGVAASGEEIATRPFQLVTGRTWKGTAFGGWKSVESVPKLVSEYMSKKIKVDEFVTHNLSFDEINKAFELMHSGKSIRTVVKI

O=C(O)c1ccc(-c2ccc3cc(O)ccc3n2)c(Cl)c1 [Example 8, 3-chloro-4-(6-hydroxyquinolin-2-yl)benzoic acid]
IC50: < 100 nM
